Assay results taken from PubChem BioAssay (NCI).
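Each compound was tested at five concentrations against cells in 96-well plates for 48 hours. GI50 marks 50% less growth. TGI marks complete inhibition of growth.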

Key:
Experiment in all cases: growth of human tumour cells (NCI), 48 h
DU-145 prostate = tested on: DU-145 prostate
RPMI-8226 leukemia = tested on: RPMI-8226 leukemia
ACHN renal = tested on: ACHN renal
LOX IMVI melanoma = tested on: LOX IMVI melanoma
MCF7 breast = tested on: MCF7 breast
SW-620 colon = tested on: SW-620 colon
HCT-116 colon = tested on: HCT-116 colon
K-562 leukemia = tested on: K-562 leukemia
NCI-H460 lung = tested on: NCI-H460 lung
UACC-62 melanoma = tested on: UACC-62 melanoma
IGROV1 ovarian = tested on: IGROV1 ovarian
COLO 205 colon = tested on: COLO 205 colon
OVCAR-8 ovarian = tested on: OVCAR-8 ovarian
MOLT-4 leukemia = tested on: MOLT-4 leukemia
SF-295 CNS = tested on: SF-295 CNS
BT-549 breast = tested on: BT-549 breast
U251 CNS = tested on: U251 CNS
SK-MEL-28 melanoma = tested on: SK-MEL-28 melanoma
NCI-H522 lung = tested on: NCI-H522 lung
HCT-15 colon = tested on: HCT-15 colon
HS 578T breast = tested on: HS 578T breast
SNB-75 CNS = tested on: SNB-75 CNS
HT29 colon = tested on: HT29 colon
EKVX NSCLC = tested on: EKVX NSCLC
MDA-MB-435 = tested on: MDA-MB-435
OVCAR-5 ovarian = tested on: OVCAR-5 ovarian
A549 NSCLC = tested on: A549 NSCLC
OVCAR-4 ovarian = tested on: OVCAR-4 ovarian
SNB-19 CNS = tested on: SNB-19 CNS
M14 melanoma = tested on: M14 melanoma
UACC-257 melanoma = tested on: UACC-257 melanoma
HOP-62 NSCLC = tested on: HOP-62 NSCLC
MDA-MB-231 breast = tested on: MDA-MB-231 breast
CCRF-CEM leukemia = tested on: CCRF-CEM leukemia
HL-60(TB) leukemia = tested on: HL-60(TB) leukemia
CAKI-1 renal = tested on: CAKI-1 renal
OVCAR-3 ovarian = tested on: OVCAR-3 ovarian
SN12C renal = tested on: SN12C renal
UO-31 renal = tested on: UO-31 renal
HOP-92 NSCLC = tested on: HOP-92 NSCLC
T-47D breast = tested on: T-47D breast
RXF 393 renal = tested on: RXF 393 renal
SK-MEL-2 melanoma = tested on: SK-MEL-2 melanoma
NCI-H226 lung = tested on: NCI-H226 lung
PC-3 prostate = tested on: PC-3 prostate
NCI/ADR-RES ovarian = tested on: NCI/ADR-RES ovarian
TK-10 renal = tested on: TK-10 renal
KM12 colon = tested on: KM12 colon
SF-539 CNS = tested on: SF-539 CNS
MALME-3M melanoma = tested on: MALME-3M melanoma
SK-OV-3 ovarian = tested on: SK-OV-3 ovarian
SF-268 CNS = tested on: SF-268 CNS
NCI-H23 lung = tested on: NCI-H23 lung
A498 renal = tested on: A498 renal
SK-MEL-5 melanoma = tested on: SK-MEL-5 melanoma
HCC-2998 colon = tested on: HCC-2998 colon
786-0 renal = tested on: 786-0 renal
SR leukemia = tested on: SR leukemia

Molecule `CCCCC(CCCCCC(CCCC)C1NC(C)Cc2cc(OC)c(OC)cc21)C1NC(C)Cc2cc(OC)c(OC)cc21` (centres undefined) has a GI50 (DU-145 prostate) of 1800 nM, a TGI (DU-145 prostate) of 3230 nM and a GI50 (RPMI-8226 leukemia) of 1990 nM. It also gave a TGI (RPMI-8226 leukemia) of 4430 nM, a GI50 (ACHN renal) of 1760 nM and a TGI (ACHN renal) of 3210 nM. The GI50 (LOX IMVI melanoma) was 1320 nM, the TGI (LOX IMVI melanoma) was 2680 nM and the GI50 (MCF7 breast) was 1190 nM. For the same molecule, the TGI (MCF7 breast) was 2520 nM, the GI50 (SW-620 colon) was 819 nM and the TGI (SW-620 colon) was 2200 nM. The GI50 (HCT-116 colon) was 1490 nM, the TGI (HCT-116 colon) was 2960 nM and the GI50 (K-562 leukemia) was 328 nM. For the same molecule, the TGI (K-562 leukemia) was 1180 nM, the GI50 (NCI-H460 lung) was 1450 nM and the TGI (NCI-H460 lung) was 2970 nM. It also gave a GI50 (UACC-62 melanoma) of 1670 nM, a TGI (UACC-62 melanoma) of 3050 nM and a GI50 (IGROV1 ovarian) of 1940 nM. For the same molecule, the TGI (IGROV1 ovarian) was 4260 nM, the GI50 (COLO 205 colon) was 294 nM and the TGI (COLO 205 colon) was 842 nM. For the same molecule, the GI50 (OVCAR-8 ovarian) was 1730 nM, the TGI (OVCAR-8 ovarian) was 3290 nM and the GI50 (MOLT-4 leukemia) was 1960 nM. The TGI (MOLT-4 leukemia) was 4220 nM, the GI50 (SF-295 CNS) was 1830 nM and the TGI (SF-295 CNS) was 3790 nM. The GI50 (BT-549 breast) was 1790 nM, the TGI (BT-549 breast) was 3260 nM and the GI50 (U251 CNS) was 1290 nM. The TGI (U251 CNS) was 2630 nM, the GI50 (SK-MEL-28 melanoma) was 1600 nM and the TGI (SK-MEL-28 melanoma) was 2950 nM. It also gave a GI50 (NCI-H522 lung) of 1700 nM, a TGI (NCI-H522 lung) of 3250 nM and a GI50 (HCT-15 colon) of 1310 nM. It also gave a TGI (HCT-15 colon) of 2760 nM, a GI50 (HS 578T breast) of 1430 nM and a TGI (HS 578T breast) of 3600 nM. For the same molecule, the GI50 (SNB-75 CNS) was 1280 nM, the TGI (SNB-75 CNS) was 2570 nM and the GI50 (HT29 colon) was 340 nM. The TGI (HT29 colon) was 1190 nM, the GI50 (EKVX NSCLC) was 1710 nM and the TGI (EKVX NSCLC) was 3610 nM. It also gave a GI50 (MDA-MB-435) of 1760 nM, a TGI (MDA-MB-435) of 4190 nM and a GI50 (OVCAR-5 ovarian) of 1820 nM. For the same molecule, the TGI (OVCAR-5 ovarian) was 3250 nM, the GI50 (A549 NSCLC) was 1570 nM and the TGI (A549 NSCLC) was 3020 nM. It also gave a GI50 (OVCAR-4 ovarian) of 1450 nM, a TGI (OVCAR-4 ovarian) of 2760 nM and a GI50 (SNB-19 CNS) of 1700 nM. The TGI (SNB-19 CNS) was 3150 nM, the GI50 (M14 melanoma) was 1790 nM and the TGI (M14 melanoma) was 3390 nM. The GI50 (UACC-257 melanoma) was 1710 nM, the TGI (UACC-257 melanoma) was 3220 nM and the GI50 (HOP-62 NSCLC) was 1470 nM. For the same molecule, the TGI (HOP-62 NSCLC) was 2880 nM, the GI50 (MDA-MB-231 breast) was 1280 nM and the TGI (MDA-MB-231 breast) was 2600 nM. For the same molecule, the GI50 (CCRF-CEM leukemia) was 2150 nM, the TGI (CCRF-CEM leukemia) was 4660 nM and the GI50 (HL-60(TB) leukemia) was 1840 nM. The TGI (HL-60(TB) leukemia) was 3790 nM, the GI50 (CAKI-1 renal) was 1720 nM and the TGI (CAKI-1 renal) was 3710 nM. The GI50 (OVCAR-3 ovarian) was 1830 nM, the TGI (OVCAR-3 ovarian) was 3270 nM and the GI50 (SN12C renal) was 1630 nM. For the same molecule, the TGI (SN12C renal) was 3040 nM, the GI50 (UO-31 renal) was 1670 nM and the TGI (UO-31 renal) was 3730 nM. For the same molecule, the GI50 (HOP-92 NSCLC) was 1060 nM, the TGI (HOP-92 NSCLC) was 2580 nM and the GI50 (T-47D breast) was 1600 nM. It also gave a TGI (T-47D breast) of 3110 nM, a GI50 (RXF 393 renal) of 1200 nM and a TGI (RXF 393 renal) of 2480 nM. For the same molecule, the GI50 (SK-MEL-2 melanoma) was 2250 nM, the TGI (SK-MEL-2 melanoma) was 3880 nM and the GI50 (NCI-H226 lung) was 1530 nM. For the same molecule, the TGI (NCI-H226 lung) was 3010 nM, the GI50 (PC-3 prostate) was 1770 nM and the TGI (PC-3 prostate) was 3510 nM. It also gave a GI50 (NCI/ADR-RES ovarian) of 1610 nM, a TGI (NCI/ADR-RES ovarian) of 3070 nM and a GI50 (TK-10 renal) of 1750 nM. It also gave a TGI (TK-10 renal) of 3220 nM, a GI50 (KM12 colon) of 1570 nM and a TGI (KM12 colon) of 3060 nM. For the same molecule, the GI50 (SF-539 CNS) was 1760 nM, the TGI (SF-539 CNS) was 3210 nM and the GI50 (MALME-3M melanoma) was 1900 nM. The TGI (MALME-3M melanoma) was 3940 nM, the GI50 (SK-OV-3 ovarian) was 1570 nM and the TGI (SK-OV-3 ovarian) was 2910 nM. It also gave a GI50 (SF-268 CNS) of 1640 nM, a TGI (SF-268 CNS) of 3080 nM and a GI50 (NCI-H23 lung) of 1670 nM. It also gave a TGI (NCI-H23 lung) of 3200 nM, a GI50 (A498 renal) of 1410 nM and a TGI (A498 renal) of 2730 nM. It also gave a GI50 (SK-MEL-5 melanoma) of 1520 nM, a TGI (SK-MEL-5 melanoma) of 2850 nM and a GI50 (HCC-2998 colon) of 250 nM. The TGI (HCC-2998 colon) was 742 nM, the GI50 (786-0 renal) was 1690 nM and the TGI (786-0 renal) was 3150 nM.
In the case of `Cc1ncc([N+](=O)[O-])n1CCn1ccnc1[N+](=O)[O-]`, the TGI (RPMI-8226 leukemia) was greater than 100000 nM, the TGI (ACHN renal) was greater than 100000 nM and the TGI (MCF7 breast) was greater than 100000 nM. It also gave a TGI (SW-620 colon) greater than 100000 nM, a TGI (HCT-116 colon) greater than 100000 nM and a TGI (K-562 leukemia) greater than 100000 nM. For the same molecule, the TGI (NCI-H460 lung) was greater than 100000 nM, the TGI (OVCAR-8 ovarian) was greater than 100000 nM and the TGI (MOLT-4 leukemia) was greater than 100000 nM. The TGI (SF-295 CNS) was greater than 100000 nM, the TGI (U251 CNS) was greater than 100000 nM and the TGI (SR leukemia) was greater than 100000 nM. It also gave a TGI (SK-MEL-28 melanoma) greater than 100000 nM, a TGI (NCI-H522 lung) greater than 100000 nM and a TGI (HCT-15 colon) greater than 100000 nM. It also gave a TGI (HS 578T breast) greater than 100000 nM, a TGI (SNB-75 CNS) greater than 100000 nM and a TGI (HT29 colon) greater than 100000 nM. The TGI (EKVX NSCLC) was greater than 100000 nM, the TGI (OVCAR-5 ovarian) was greater than 100000 nM and the TGI (A549 NSCLC) was greater than 100000 nM. The TGI (UACC-257 melanoma) was greater than 100000 nM, the TGI (HOP-62 NSCLC) was greater than 100000 nM and the TGI (CCRF-CEM leukemia) was greater than 100000 nM. It also gave a TGI (HL-60(TB) leukemia) greater than 100000 nM, a TGI (OVCAR-3 ovarian) greater than 100000 nM and a TGI (SN12C renal) greater than 100000 nM. For the same molecule, the TGI (SK-MEL-2 melanoma) was greater than 100000 nM, the TGI (NCI-H226 lung) was greater than 100000 nM and the TGI (PC-3 prostate) was greater than 100000 nM. The TGI (TK-10 renal) was 29000 nM, the TGI (KM12 colon) was greater than 100000 nM and the TGI (SF-539 CNS) was greater than 100000 nM. The TGI (MALME-3M melanoma) was greater than 100000 nM, the TGI (SF-268 CNS) was greater than 100000 nM and the TGI (NCI-H23 lung) was greater than 100000 nM. It also gave a TGI (A498 renal) greater than 100000 nM, a TGI (SK-MEL-5 melanoma) greater than 100000 nM and a TGI (HCC-2998 colon) greater than 100000 nM. It also gave a TGI (786-0 renal) greater than 100000 nM.
